Experiment [1] deals with T1, hNav1.7 (Homo sapiens (Human), UniProt Q15858). Put plainly: Electrophysiological assay (EP), voltage clamp on Syncropatch 384PE. The experiment is classed as cell-based. Particulars: CHO cells expressing Nav1.7, holding potential −50 mV, 7.5 min compound incubation; read-out: EP_SP hNav1.7 EVO IC50. An excerpt: Example 39C. Electrophysiological Assay (EP) (In Vitro Assay)
Patch voltage clamp electrophysiology allows for the direct measurement and quantification of block of voltage-gated sodium channels (NaV's), and allows the determination of the time- and voltage-dependence of block which has been interpreted as differential binding to the resting, open, and inactivated states of the sodium channel (Hille, B., Journal of General Physiology (1977), 69: 497-515).
The following voltage clamp electrophysiology studies were performed on representative compounds using cells heterologously expressing Nav1.7 or Nav1.5 channels. cDNAs for Nav1.7 (NM_002977) and Nav1.5 (AC137587) were stably expressed in Chinese Hamstr Ovary (CHO) cells and CHL (Chinese Hamster Lung) cells respectively. Sodium currents were measured in the whole-cell configuration using Syncropatch 384PE (Nanlon Technologies, Germany). 1NPC®-384 chips with custom medium resistance and single hole mode are used. Internal solution consists of (in mM): 110 […], 10 CsCl, 20 EGTA, and 10 Hepes (pH adjusted to 7.2); and external solution contains (in mM): 60 NMDG, 80 NaCl, 4 KCl, 1 MgCl2, 2 CaCl2, 2 D-Glucose monohydrate, 10 Hepes (pH adjusted to 7.4 with NaOH).
After system flushing, testing compounds are dissolved in external solution containing 0.1% Pluronic F-127. The chip is moved into the measuring head and the instrument primes the chip with external and internal solutions. 10 l cells are added to the chip from a cell hotel, and a negative pressure of −50 mBar is applied to form a seal. Following treatment with seal enhancer solution and wash-off with external solution, negative pressure of −250 mbar is applied for 1 second to achieve the whole-cell configuration, followed by three washing steps in external solution. 20 µl of compounds is added to 40 µl in each well (1:3 dilution of compounds), and after mixing, 20 l is removed so the volume is retained at 40 ul. After approximately 13 minutes recordings, 20 µl/well of 2 uM TTX, or 333 uM Tetracaine (for Nav1.5) is added to achieve full block.
For voltage protocol, an holding potential of −50 mV is applied during the whole experiment. A depolarizing step is applied to −10 mV for 10 ms, followed by a hyperpolarization step to −150 mV for 20 ms to allow channel recovery from inactivation. A second depolarizing step is applied from −150 mV to −10 mV for 10 ms, where currents were measured to derive blocking effects of compounds. Inhibition is determined based on 7.5 min of compound incubation.

Experiment [2] concerns the target T1, hNav1.7. Briefly: Tritiated compound binding to membranes from cells heterologously expressing hNav1.7 and the β1 subunit (LBA). As to conditions: competitive binding vs [3H]compound, membranes with hNav1.7 and β1 subunit; read-out: Nav1.7 LBA EVO IC50. The procedure:
Example 39A. Tritiated Compound Binding to Membranes Isolated from Cells that Heterologously Express hNav1.7 and the β1 Subunit
Preparation of membranes containing recombinantly expressed sodium channels: Frozen recombinant cell pellets were thawed on ice and diluted to 4 times the cell pellet weight with ice cold 50 mM Tris HCl, pH 7.4 buffer. The cell suspensions were homogenized on ice using a motorized glass dounce homogeniser. Homogenates were further diluted 8.4 times with ice cold 50 mM Tris HCl, pH 7.4 buffer and then centrifuged at 200×g at 4° C. for 15 min. The supernatants were collected and centrifuged at 10000×g at 4° C. for 50 min. The pellets were then re-suspended in 100 mM NaCl, 20 mM Tris HCl, pH 7.4 buffer containing 1% v/v protease inhibitors (Calbiochem) and re-homogenized on ice. The homogenized membranes were then processed through a syringe equipped with a 26 gauge needle. Protein concentrations were determined by Bradford Assay and the membranes were stored at −80° C.
Saturation experiments. A competitive NaV1.7 inhibitor having a methyl group was tritiated. Three tritiums were incorporated in place of methyl hydrogens to generate [^3H]compound. Binding of this radioligand was performed in 5 mL borosilicate glass test tubes at room temperature. Binding was initiated by adding membranes to increasing concentrations of [^3H]compound in 100 mM NaCl, 20 mM Tris HCl, pH 7.4 buffer containing 0.01% w/v bovine serum albumin (BSA) for 18 h. Non-specific binding was determined in the presence of 1 μM unlabeled compound. After 18 h, the reactants were filtered through GF/C glass fiber filters presoaked in 0.5% w/v polyethylene imine. Filters were washed with 15 mL ice cold 100 mM NaCl, 20 mM Tris HCl, pH7.4 buffer containing 0.25% BSA to separate bound from free ligand. [^3H]compound bound to filters was quantified by liquid scintillation counting.
Binding reactions were performed in 96-well polypropylene plates at room temperature for 18 h. In 360 μL, membranes were incubated with 100 pM [^3H]compound and increasing concentrations of Test Compound. Non-specific binding was defined in the presence of 1 μM unlabeled compound. Reactions were transferred and filtered through 96-well glass fiber/C filter plates presoaked with 0.5% polyethylene imine. The filtered reactions were washed 5 times with 200 μL ice cold buffer containing 0.25% BSA. Bound radioactivity was determined by liquid scintillation counting.
For saturation experiments, non-specific binding was subtracted from total binding to provide specific binding and these values were recalculated in terms of pmol ligand bound per mg protein. Saturation curves were constructed and dissociation constants were calculated using the single site ligand binding model: Beq=(Bmax*X)/(X+Kd), where Beq is the amount of ligand bound at equilibrium, Bmax is the maximum receptor density, Kd is the dissociation constant for the ligand, and X is the free ligand concentration. For competition studies percent inhibition was determined and IC50 values were calculated using a 4 parameter logistic model (% inhibition=(A+((B−A)/(1+((x/C)^D)))) using XLfit, where A and B are the maximal and minimum inhibition respectively, C is the IC50 concentration and D is the (Hill) slope.
Example 39B. Tritiated Compound Binding to Membranes Isolated from Cells that Heterologous Express hNav1.7 and the β1 Subunit
Following the procedure described in Example 39A, and making modifications as required to: centrifuge supernatants at 100000×g instead of 10000×g; re-suspend pellets in a buffer containing 0.01% BSA in addition to 100 mM NaCl, 20 mM Tris HCl, pH 7.4 buffer, and 1% v/v […]; and storing membranes at −80° C. in single use aliquots instead of pooled.
Saturation experiments: Following the procedure described in Example 243A, and making modifications as required to incubate [3H]compound for 3 hours instead of 18 hours. […]

With `COc1cc(-c2cccc(C(F)(F)F)c2)c(F)cc1N1C(=O)OC[C@H]2CN(S(=O)(=O)Nc3ccon3)CC[C@@H]21` [Example 34, (4aS,8aS)-1-(2-fluoro-5-methoxy-3′-(trifluoromethyl)-[1,1′-biphenyl]-4-yl)-N-(isoxazol-3-yl)-2-oxohexahydro-2H-pyrido[4,3-d][1,3]oxazine-6(4H)-sulfonamide], the IC50 on hNav1.7 [1] came out at 0.196 µM; on hNav1.7 [2], 2 µM.

As for `COc1cc(-c2cccc(C(F)(F)F)c2)c(F)cc1N1CCO[C@@H]2CN(S(=O)(=O)Nc3ccncn3)CC[C@H]21` [Example 27, (4aR,8aR)-1-(2-fluoro-5-methoxy-3′-(trifluoromethyl)-[1,1′-biphenyl]-4-yl)-N-(pyrimidin-4-yl)hexahydro-1H-pyrido[3,4-b][1,4]oxazine-6(7H)-sulfonamide], the IC50 worked out at 0.00202 µM on hNav1.7 [1] and 0.0212 µM on hNav1.7 [2].

For the molecule `N#Cc1cc(-c2cccc(C(F)(F)F)c2)c(F)cc1N1C(=O)CO[C@H]2CN(S(=O)(=O)Nc3ccon3)CC[C@@H]21` [Example 24, (4aS,8aS)-1-(5-cyano-2-fluoro-3′-(trifluoromethyl)-[1,1′-biphenyl]-4-yl)-N-(isoxazol-3-yl)-2-oxohexahydro-1H-pyrido[3,4-b][1,4]oxazine-6(7H)-sulfonamide], the IC50 on hNav1.7 [1] is 0.237 µM; on hNav1.7 [2] it was 2 µM.

On to `COc1cc(-c2cccc(C(F)(F)F)c2F)c(F)cc1N1C(=O)CO[C@H]2CN(S(=O)(=O)Nc3ccon3)CC[C@@H]21` [Example 12, (4aS,8aS)-1-(2,2′-difluoro-5-methoxy-3′-(trifluoromethyl)-[1,1′-biphenyl]-4-yl)-N-(isoxazol-3-yl)-2-oxohexahydro-1H-pyrido[3,4-b][1,4]oxazine-6(7H)-sulfonamide], for which the IC50 at hNav1.7 [1] came out at 0.00683 µM; at hNav1.7 [2], 0.131 µM.

As to `COc1cc(-c2cccc(C(F)F)c2)c(F)cc1N1C(=O)CO[C@@H]2CN(S(=O)(=O)Nc3ccon3)CC[C@H]21` [Example 15, (4aR,8aR)-1-(3′-(difluoromethyl)-2-fluoro-5-methoxy-[1,1′-biphenyl]-4-yl)-N-(isoxazol-3-yl)-2-oxohexahydro-1H-pyrido[3,4-b][1,4]oxazine-6(7H)-sulfonamide], the values for the IC50 at hNav1.7 [1] and at hNav1.7 [2] were 0.0467 µM and 2 µM, respectively.

As for `COc1nc(-c2cccc(C(F)(F)F)c2)c(F)cc1N1C(=O)CO[C@H]2CN(S(=O)(=O)Nc3ccon3)CC[C@@H]21` [Example 22, (4aS,8aS)-1-(5-fluoro-2-methoxy-6-(3-(trifluoromethyl)phenyl)pyridin-3-yl)-N-(isoxazol-3-yl)-2-oxohexahydro-1H-pyrido[3,4-b][1,4]oxazine-6(7H)-sulfonamide], the half-inhibitory concentration (IC50) was determined as 0.0668 µM at hNav1.7 [1] and 0.907 µM at hNav1.7 [2].

`N#Cc1cc(-c2cccc(C(F)(F)F)c2)c(F)cc1N1C(=O)CO[C@@H]2CN(S(=O)(=O)Nc3ccon3)CC[C@H]21` [Example 23, (4aR,8aR)-1-(5-cyano-2-fluoro-3′-(trifluoromethyl)-[1,1′-biphenyl]-4-yl)-N-(isoxazol-3-yl)-2-oxohexahydro-1H-pyrido[3,4-b][1,4]oxazine-6(7H)-sulfonamide]: the figures for the IC50 at hNav1.7 [1] and on hNav1.7 [2] were 0.0501 µM and 2 µM, respectively.

`COc1cc(-c2cccc(C(F)(F)F)c2)ccc1N1C(=O)CO[C@H]2CN(S(=O)(=O)Nc3ccon3)CC[C@@H]21` [Example 18, (4aS,8aS)-N-(isoxazol-3-yl)-1-(3-methoxy-3′-(trifluoromethyl)-[1,1′-biphenyl]-4-yl)-2-oxohexahydro-1H-pyrido[3,4-b][1,4]oxazine-6(7H)-sulfonamide]: the results for the IC50 on hNav1.7 [1] and on hNav1.7 [2] were 0.00586 µM and 0.346 µM, respectively.

For `COc1cc(-c2cccc(Cl)c2)c(F)cc1N1C(=O)CO[C@@H]2CN(S(=O)(=O)Nc3ccon3)CC[C@H]21` [Example 13, (4aR,8aR)-1-(3′-chloro-2-fluoro-5-methoxy-[1,1′-biphenyl]-4-yl)-N-(isoxazol-3-yl)-2-oxohexahydro-1H-pyrido[3,4-b][1,4]oxazine-6(7H)-sulfonamide], the IC50 at hNav1.7 [1] is 0.0117 µM; at hNav1.7 [2], 0.471 µM.

As to `COc1cc(-c2cccc(C(F)(F)F)c2)cc(F)c1N1C(=O)CO[C@@H]2CN(S(=O)(=O)Nc3ccon3)CC[C@H]21` [Example 19, (4aR,8aR)-1-(3-fluoro-5-methoxy-3′-(trifluoromethyl)-[1,1′-biphenyl]-4-yl)-N-(isoxazol-3-yl)-2-oxohexahydro-1H-pyrido[3,4-b][1,4]oxazine-6(7H)-sulfonamide], the figures for the IC50 on hNav1.7 [1] and on hNav1.7 [2] were 0.05 µM and 0.831 µM, respectively.

On to `COc1cc(-c2cccc(C(F)(F)F)c2)c(F)cc1N1C(=O)CO[C@@H]2CN(S(=O)(=O)Nc3ccon3)CC[C@H]21` [Example 3, (4aR,8aR)-1-(2-fluoro-5-methoxy-3′-(trifluoromethyl)-[1,1′-biphenyl]-4-yl)-N-(isoxazol-3-yl)-2-oxohexahydro-1H-pyrido[3,4-b][1,4]oxazine-6(7H)-sulfonamide], for which the IC50 at hNav1.7 [1] came to 0.00226 µM; at hNav1.7 [2] it was 0.067 µM.

For the molecule `COc1cc(-c2cccc(C(F)(F)F)c2)c(F)cc1N1C(=O)CC[C@H]2CN(S(=O)(=O)Nc3ccon3)CCC21` (stereo in doubt) [Example 36, (4aS,8aS)-1-(2-fluoro-5-methoxy-3′-(trifluoromethyl)-[1,1′-biphenyl]-4-yl)-N-(isoxazol-3-yl)-2-oxooctahydro-1,6-naphthyridine-6(2H)-sulfonamide], the IC50 at hNav1.7 [1] was 0.00219 µM; at hNav1.7 [2] it was 0.0207 µM.
